Test results from patent publication US20240218022A1, “ANTI-VISTA MACROCYCLIC PEPTIDES AND COMPOSITIONS” (BRISTOL-MYERS SQUIBB COMPANY, priority 2022, published 2024).
Where two headings read alike, the source gives them in different places. One block for each compound: values may come before it. Starred links: 1 amine or outer side, 2 acyl side, 3 side chain; linkers in the order of their positions; H or OH if unused. Positions of bridges follow the written chain, without caps; N, C: chain ends. Non-standard residues stand in square brackets, D forms with d. Residues, ends and D or L forms follow the SMILES beside them. Phe(4-CONH2) = NC(=O)c1ccc(C[C@H](N)C(=O)O)cc1; Phe(3-Me) = Cc1cccc(C[C@H](N)C(=O)O)c1; γGlu = O=C(O)[C@H](CCC(=O)[*:2])N[*:1]; 2Nal = N[C@@H](Cc1ccc2ccccc2c1)C(=O)O; βAsp = O=C(O)[C@H](CC(=O)[*:2])N[*:1]; Ahp(2) = CCCCC[C@H](N)C(=O)O; NMeNle = CCCC[C@H](NC)C(=O)O; Tle = CC(C)(C)[C@H](N)C(=O)O; NMeS = CN[C@@H](CO)C(=O)O; Pip = O=C(O)[C@@H]1CCCCN1; NHexGly = CCCCCCNCC(=O)O; Nle = CCCC[C@H](N)C(=O)O; Orn = NCCC[C@H](N)C(=O)O; Aun = NCCCCCCCCCCC(=O)O; Nva = CCC[C@H](N)C(=O)O; Abu = CC[C@H](N)C(=O)O; AEEA = NCCOCCOCC(=O)O; NBuGly = CCCCNCC(=O)O

Target: T1, mouse VISTA (mVISTA) (Mus musculus, UniProt Q9D659)
T1 construct: expressed in transfected cells; host or cells: Human embryonic kidney 293T cells
T1 sequence (Q9D659 33-308): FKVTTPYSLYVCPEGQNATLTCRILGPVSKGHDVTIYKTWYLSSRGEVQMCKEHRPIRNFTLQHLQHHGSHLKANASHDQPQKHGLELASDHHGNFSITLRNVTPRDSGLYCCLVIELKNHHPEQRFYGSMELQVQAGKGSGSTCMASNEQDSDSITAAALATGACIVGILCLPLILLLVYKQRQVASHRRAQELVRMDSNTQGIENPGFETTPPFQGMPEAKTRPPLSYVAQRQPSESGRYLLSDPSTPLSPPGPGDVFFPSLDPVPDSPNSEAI
Assay: Cell-Based Binding High-Content Assay For mVISTA (HC CBA mVISTA)
Method in brief: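 mVISTA-293T, 4,000 cells/well; cpd ± washout step; biotin-peptide 2 nM final, 30 min RT; SA-Alexa 647 30 min; formaldehyde/Hoechst fix; HCS imaging; 4PL IC50.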

[1] = cell-based binding high-content assay, mVISTA, read-out: HC CBA miPr ISTA IC50
[2] = cell-based binding high-content assay, mVISTA, the 16th table, read-out: HC CBA mVISTA IC50

IC50 [2]: 15.7 nM
SMILES: CCCCC[C@@H]1NC(=O)[C@H](CC(C)C)NC(=O)[C@H](CCCNC(=N)N)NC(=O)CNC(=O)[C@H](C(C)C)NC(=O)[C@H](Cc2ccc(O)cc2)NC(=O)CN(CCCC)C(=O)[C@H](CC(=O)O)NC(=O)[C@H](Cc2ccc(O)cc2)NC(=O)[C@H](Cc2ccc3ccccc3c2)NC(=O)CSC[C@@H](C(=O)NCC(=O)O)NC(=O)[C@H](CC(=O)O)NC(=O)[C@H](C(C)C)NC(=O)[C@@H]2CCCN2C1=O [Ex 1269] ({CH2CO}-[2Nal]YD[NBuGly]YVGRL[Ahp(2)]PVDCG-OH; thioether N-14)

IC50 (293T cells expressing mouse VISTA, competition with biotinylated peptide (2 nM), read-out: HC CBA mVISTA IC50): 25.7 nM
SMILES: CCCCCCN1CC(=O)N[C@@H](Cc2ccc(O)cc2)C(=O)N[C@@H](CCC)C(=O)NCC(=O)N[C@@H](CCCNC(=N)N)C(=O)N[C@@H](CC(C)C)C(=O)N[C@@H](CCCCC)C(=O)N2CCC[C@H]2C(=O)N[C@@H](C(C)C)C(=O)N2CCC[C@H]2C(=O)N[C@H](C(=O)NCC(N)=O)CSCC(=O)N[C@@H](Cc2ccccc2)C(=O)N[C@@H](Cc2ccc(O)cc2)C(=O)N[C@@H](CC(=O)O)C1=O [Example 1102] ({CH2CO}-FYD[NHexGly]Y[Nva]GRL[Ahp(2)]PVPCG-NH2; thioether N-14)

IC50 (read-out: HC CBA mVISTA IC50): 37.6 nM
SMILES: CCCCCCN1CC(=O)N[C@@H](Cc2ccc(O)cc2)C(=O)N[C@@H](C(C)C)C(=O)N[C@@H](CC(N)=O)C(=O)N[C@@H](CCCNC(=N)N)C(=O)N[C@@H](CC(C)C)C(=O)N[C@@H](CCCCC)C(=O)N2CCC[C@H]2C(=O)N[C@@H](C(C)C)C(=O)N2CCC[C@H]2C(=O)N[C@H](C(=O)NCC(=O)O)CSCC(=O)N[C@@H](Cc2ccccc2)C(=O)N[C@@H](Cc2ccc(O)cc2)C(=O)N[C@@H](CC(=O)O)C1=O [compound 1122] ({CH2CO}-FYD[NHexGly]YVNRL[Ahp(2)]PVPCG-OH; thioether N-14)

IC50 [2]: 32 nM
SMILES: CCCCCCN1CC(=O)N[C@@H](Cc2ccc(O)cc2)C(=O)N[C@@H](CC(C)C)C(=O)NCC(=O)N[C@@H](CCCNC(=N)N)C(=O)N[C@@H](CC(C)C)C(=O)N[C@@H](CCCCC)C(=O)N2CCC[C@H]2C(=O)N[C@@H](C(C)C)C(=O)N[C@@H](CO)C(=O)N[C@H](C(=O)NCC(=O)O)CSCC(=O)N[C@@H](Cc2ccc3ccccc3c2)C(=O)N[C@@H](Cc2ccc(O)cc2)C(=O)N[C@@H](CC(=O)O)C1=O [Ex 1274] ({CH2CO}-[2Nal]YD[NHexGly]YLGRL[Ahp(2)]PVSCG-OH; thioether N-14)

Continued, compound first:

SMILES: CCCCCCN1CC(=O)N[C@@H](Cc2ccc(O)cc2)C(=O)N[C@@H](CCCC)C(=O)N[C@@H](CC(N)=O)C(=O)N[C@@H](CCCNC(=N)N)C(=O)N(C)[C@@H](CCCC)C(=O)N[C@@H](CCCCC)C(=O)N2CCCC[C@H]2C(=O)N[C@@H](C(C)C)C(=O)N[C@@H](CO)C(=O)N[C@H](C(=O)N[C@@H](CC(=O)NCCOCCOCC(=O)NCCCCCCCCCCC(=O)O)C(=O)O)CSCC(=O)N[C@@H](Cc2ccccc2)C(=O)N[C@@H](Cc2c[nH]c3ccccc23)C(=O)N[C@@H](CC(=O)O)C1=O [Example 2186] ({CH2CO}-FWD[NHexGly]Y[Nle]NR[NMeNle][Ahp(2)][Pip]VSC[βAsp][AEEA][Aun]-OH; thioether N-14)
IC50 (read-out: HC CBA mVISTA IC50): 24.4 nM

SMILES: CCCCCCN1CC(=O)N[C@@H](Cc2ccc(O)cc2)C(=O)N[C@@H](CCCCN)C(=O)N[C@@H](CC(N)=O)C(=O)N[C@@H](CCCN)C(=O)N(C)[C@@H](CCCC)C(=O)N[C@@H](CCCCC)C(=O)N2CCC[C@H]2C(=O)N[C@@H](C(C)(C)C)C(=O)N[C@@H](CC(=O)O)C(=O)N[C@H](C(=O)N[C@@H](CCC(=O)NCCCCCCCCCCC(=O)O)C(=O)O)CSCC(=O)N[C@@H](Cc2ccccc2)C(=O)N[C@@H](Cc2ccc(O)cc2)C(=O)N[C@@H](CC(=O)O)C1=O [Example 2140] ({CH2CO}-FYD[NHexGly]YKN[Orn][NMeNle][Ahp(2)]P[Tle]DC[γGlu][Aun]-OH; thioether N-14)
IC50 (read-out: HC CBA mVISTA IC50): 41.9 nM

SMILES: CCCCCCN1CC(=O)N[C@@H](Cc2ccc(O)cc2)C(=O)N[C@@H](CC(C)C)C(=O)N[C@@H](CC(N)=O)C(=O)N[C@@H](CCCNC(=N)N)C(=O)N(C)[C@@H](CCCC)C(=O)N[C@@H](CCCCC)C(=O)N2CCC[C@H]2C(=O)N[C@@H](C(C)(C)C)C(=O)N[C@@H](CO)C(=O)N[C@H](C(=O)N[C@@H](CC(=O)NCCOCCOCC(=O)N[C@@H](CC(=O)O)C(=O)NCCOCCOCC(=O)NCCCCCCCCCCC(=O)O)C(=O)O)CSCC(=O)N[C@@H](Cc2ccc(C(N)=O)cc2)C(=O)N[C@@H](Cc2c[nH]c3ccccc23)C(=O)N[C@@H](CC(=O)O)C1=O [compound 2090] ({CH2CO}-[Phe(4-CONH2)]WD[NHexGly]YLNR[NMeNle][Ahp(2)]P[Tle]SC[βAsp][AEEA]D[AEEA][Aun]-OH; thioether N-14)
IC50 (cell-based binding high-content assay, mVISTA, read-out: HC CBA miPrISTA IC50): 34.4 nM

SMILES: CCCCCCN1CC(=O)N[C@@H](Cc2ccc(O)cc2)C(=O)N[C@@H](CCCC)C(=O)N[C@@H](CC(N)=O)C(=O)N[C@@H](CCCNC(=N)N)C(=O)N(C)[C@@H](CCCC)C(=O)N[C@@H](CCCCC)C(=O)N2CCC[C@H]2C(=O)N[C@@H](C(C)C)C(=O)N[C@@H](CO)C(=O)N[C@H](C(=O)NCC(=O)O)CSCC(=O)N[C@@H](Cc2ccccc2)C(=O)N[C@@H](Cc2c[nH]c3ccccc23)C(=O)N[C@@H](CC(=O)O)C1=O [Example 1382] ({CH2CO}-FWD[NHexGly]Y[Nle]NR[NMeNle][Ahp(2)]PVSCG-OH; thioether N-14)
IC50 (read-out: HC CBA mVISTA IC50): 17.2 nM

SMILES: CCCCCCN1CC(=O)N[C@@H](Cc2ccc(O)cc2)C(=O)N[C@@H](CC)C(=O)N[C@@H](CC(N)=O)C(=O)N[C@@H](CCCN)C(=O)N(C)[C@@H](CCCC)C(=O)N[C@@H](CCCCC)C(=O)N2CCC[C@H]2C(=O)N[C@@H](C(C)(C)C)C(=O)N[C@@H](CO)C(=O)N[C@H](C(=O)N[C@@H](CC(=O)NCCOCCOCC(=O)N[C@@H](CC(=O)O)C(=O)NCCOCCOCC(=O)NCCCCCCCCCCC(=O)O)C(=O)O)CSCC(=O)N[C@@H](Cc2ccccc2)C(=O)N[C@@H](Cc2ccc(O)cc2)C(=O)N[C@@H](CC(=O)O)C1=O [compound 2060] ({CH2CO}-FYD[NHexGly]Y[Abu]N[Orn][NMeNle][Ahp(2)]P[Tle]SC[βAsp][AEEA]D[AEEA][Aun]-OH; thioether N-14)
IC50 [1]: 24.7 nM

SMILES: CCCCCCN1CC(=O)N[C@@H](Cc2ccc(O)cc2)C(=O)N[C@@H](CC(C)C)C(=O)N[C@@H](CC(N)=O)C(=O)N[C@@H](CCCNC(=N)N)C(=O)N(C)[C@@H](CCCC)C(=O)N[C@@H](CCCCC)C(=O)N2CCC[C@H]2C(=O)N[C@@H](C(C)(C)C)C(=O)N[C@@H](CC(=O)O)C(=O)N[C@H](C(=O)NCCOCCOCC(=O)N[C@@H](CCC(=O)NCCOCCOCC(=O)NCCCCCCCCCCC(=O)O)C(=O)O)CSCC(=O)N[C@@H](Cc2ccccc2)C(=O)N[C@@H](Cc2ccc(O)cc2)C(=O)N[C@@H](CC(=O)O)C1=O [compound 2261] ({CH2CO}-FYD[NHexGly]YLNR[NMeNle][Ahp(2)]P[Tle]DC[AEEA][γGlu][AEEA][Aun]-OH; thioether N-14)
IC50 (read-out: HC CBA mVISTA IC50): 23.8 nM

SMILES: CCCCCCN1CC(=O)N[C@@H](Cc2ccc(O)cc2)C(=O)N[C@@H](CC(C)C)C(=O)N[C@@H](CC(N)=O)C(=O)N[C@@H](CCCNC(=N)N)C(=O)N(C)[C@@H](CO)C(=O)N[C@@H](CCCCC)C(=O)N2CCC[C@H]2C(=O)N[C@@H](C(C)(C)C)C(=O)N[C@@H](CC(=O)O)C(=O)N[C@H](C(=O)N[C@@H](CC(=O)NCCOCCOCC(=O)N[C@@H](CC(=O)O)C(=O)NCCOCCOCC(=O)NCCCCCCCCCCC(=O)O)C(=O)O)CSCC(=O)N[C@@H](Cc2ccccc2)C(=O)N[C@@H](Cc2c[nH]c3ccccc23)C(=O)N[C@@H](CC(=O)O)C1=O [compound 2034] ({CH2CO}-FWD[NHexGly]YLNR[NMeS][Ahp(2)]P[Tle]DC[βAsp][AEEA]D[AEEA][Aun]-OH; thioether N-14)
IC50 [1]: 43.5 nM

SMILES: CCCCCCN1CC(=O)N[C@@H](Cc2ccc(O)cc2)C(=O)N[C@@H](C)C(=O)N[C@@H](CC(N)=O)C(=O)N[C@@H](CCCNC(=N)N)C(=O)N(C)[C@@H](CCCC)C(=O)N[C@@H](CCCCC)C(=O)N2CCC[C@H]2C(=O)N[C@@H](C(C)(C)C)C(=O)N[C@@H](CO)C(=O)N[C@H](C(=O)N[C@@H](CC(=O)NCCOCCOCC(=O)N[C@@H](CC(=O)O)C(=O)NCCOCCOCC(=O)NCCCCCCCCCCC(=O)O)C(=O)O)CSCC(=O)N[C@@H](Cc2ccccc2)C(=O)N[C@@H](Cc2ccc(O)cc2)C(=O)N[C@@H](CC(=O)O)C1=O [compound 2058] ({CH2CO}-FYD[NHexGly]YANR[NMeNle][Ahp(2)]P[Tle]SC[βAsp][AEEA]D[AEEA][Aun]-OH; thioether N-14)
IC50 [1]: 27.6 nM

SMILES: CCCCCCN1CC(=O)N[C@@H](Cc2ccc(O)cc2)C(=O)N[C@@H](CCCC)C(=O)N[C@@H](CC(N)=O)C(=O)N[C@@H](CCCNC(=N)N)C(=O)N(C)[C@@H](CCCC)C(=O)N[C@@H](CCCCC)C(=O)N2CCC[C@H]2C(=O)N[C@@H](C(C)(C)C)C(=O)N[C@@H](CO)C(=O)N[C@H](C(=O)NCC(=O)NCCOCCOCC(=O)N[C@@H](CCC(=O)NCCOCCOCC(=O)NCCCCCCCCCCC(=O)O)C(=O)O)CSCC(=O)N[C@@H](Cc2ccccc2)C(=O)N[C@@H](Cc2cccc(C)c2)C(=O)N[C@@H](CC(=O)O)C1=O [compound 2330] ({CH2CO}-F[Phe(3-Me)]D[NHexGly]Y[Nle]NR[NMeNle][Ahp(2)]P[Tle]SCG[AEEA][γGlu][AEEA][Aun]-OH; thioether N-14)
IC50 (cell-based binding high-content assay, read-out: HC CBA mVISTA IC50): 18 nM
